Data reported in patent US11826364B2, “Treatment for epilepsy” (Katholieke Universiteit Leuven, priority 2017, dated 2023).

What was measured:
[1] = tested on: zebrafish larvae; assay: Zebrafish pentylenetetrazole (PTZ) seizure model, behavioral analysis; assay type: in vivo, zebrafish (Danio rerio); conditions: 2 hours incubation; for antiseizure activity at lower concentrations: MTC/2 and MTC/4
Experimental: Experiments were performed as [Add references please: Copmans (2018), ACS chemical neuroscience; Copmans et al. (2018) Neurochem. Int. 112, 124-133; Afrikanova et al. (2013) PLoS One 8, e54166; Orellana-Paucar et al. (2012) Epilepsy Behav 24, 14-22]. In brief, a single 7 dpf larva was placed in each well of a 96-well plate and treated with either VHC (1% DMSO) or test compound in a 100 μl volume. Larvae were incubated in dark for 2 hours at 28° C., whereafter 100 μl of either VHC (embryo medium) or 40 mM PTZ (20 mM working concentration) was added to each well. Next, within 5 minutes the 96-well plate was placed in an automated tracking device (ZebraBox Viewpoint, France) and larval behavior was video recorded for 30 minutes. The complete procedure was performed in dark conditions using infrared light. Total locomotor activity was recorded by ZebraLab software (Viewpoint, France) and expressed in actinteg units, which is the sum of pixel changes detected during the defined time interval (5 minutes). Larval behavior was depicted as mean actinteg units per 5 minutes in the 30 minute recording period and over consecutive time intervals. Data are expressed as mean±SD for single experiments with regards to screening, and as mean±SEM for single experiments and for independent experiments of which the means or data are pooled.
In the first secondary screen three replicate wells were used per sample (100 μg/mL) tested and each experimental plate contained 12 internal control wells. In the second secondary screen six replicate wells were used per sample and concentration tested (100, 33, and 11 μg/mL), again 12 internal control wells were used per experimental plate.

[2] = tested on: zebrafish larvae; assay: Toxicity evaluation, maximum tolerated concentration (MTC) in zebrafish larvae; assay type: in vivo, zebrafish (Danio rerio); conditions: highest concentration without death, toxicity or locomotor impairment
Experimental: Maximum tolerated concentration (MTC) was determined prior to further experiments and used as the highest test concentration. Experiments were described as described in Copmans et al. (2018) ACS chemical neuroscience. MTC was investigated by exposing 12 larvae of 6 dpf to a range of concentrations in a 100 μl volume during 18 hours. The following parameters were investigated after 2 and 18 hours of exposure: touch response, morphology, posture, edema, signs of necrosis, swim bladder, and heartbeat.

[3] = Solubility in the injection solvent (PEG200:DMSO 1:1); assay type: physicochemical; conditions: 20 mg/kg dose
Experimental: For experiments with zebrafish larvae, dry samples and compounds were dissolved in 100% dimethyl sulfoxide (DMSO, spectroscopy grade) as 100-fold concentrated stocks and diluted in embryo medium to a final concentration of 1% DMSO content, except for PTZ which was dissolved in embryo medium (0% DMSO). Control groups were treated with 1% DMSO (VHC) in accordance with the final solvent concentration of tested samples or compounds. For mice experiments, a mixture of poly-ethylene glycol M.W. 200 (PEG200) and 100% DMSO (spectroscopy grade) (1:1 PEG200:DMSO) was used as solvent and VHC. Pentylenetetrazole and valproate were purchased from Sigma-Aldrich.

[4] = tested on: zebrafish larvae; assay: Non-invasive local field potential (LFP) recordings from the optic tectum, zebrafish PTZ seizure model; assay type: in vivo, zebrafish (Danio rerio); conditions: MTC (20 μg/mL); 2 hours incubation; 10 min recording
Experimental: Non-invasive LFP recordings were measured from the midbrain (optic tectum) of 7 dpf zebrafish larvae pre-incubated with VHC only, PTZ only, compound and VHC, or compound and PTZ. Experiments were performed as described in Copmans et al. (2018) Neurochem. Int. 112, 124-133;
Copmans (2018) ACS chemical neuroscience. In brief, larvae were incubated for approximately 2 hours with VHC (1% DMSO) or test compound (1% DMSO) in a 100 μL volume. After incubation, an equal volume of VHC (embryo medium) or 40 mM PTZ (20 mM working concentration) was added to the well for 15 minutes prior to recording. These steps occurred at 28° C., while further manipulation and electrophysiological recordings occurred at room temperature (±21° C.). The larva was embedded in 2% low melting point agarose (Invitrogen) and the signal electrode (an electrode inside a soda-glass pipet (1412227, Hilgenberg) pulled with a DMZ Universal Puller (Zeitz, Germany), diameter±20 microns, containing artificial cerebrospinal fluid (ACSF: 124 mM NaCl, 10 mM glucose, 2 mM KCl, 2 mM MgSO4, 2 mM CaCl2, 1.25 mM KH2PO4, and 26 mM NaHCO3, 300-310 mOsmols)) was positioned on the skin covering the optic tectum. A differential extracellular amplifier (DAGAN, USA) amplified the voltage difference between the signal (measured by the signal electrode) and the reference electrode. The differential signal was band pass filtered at 0.3-300 Hz and digitized at 2 kHz via a PCI-6251 interface (National instruments, UK) using WinEDR (John Dempster, University of Strathclyde, UK). A grounding electrode grounded the electrical system. All electrodes were connected with ACSF. Each recording lasted 600 seconds. Manual analysis was completed by quantification of the number, cumulative duration, and mean duration of epileptiform-like events with Clampfit 10.2 software (Molecular Devices Corporation, USA). An electrical discharge was considered epileptiform if it was a poly-spiking event comprising at least 3 spikes with a minimum amplitude of three times the baseline amplitude and a duration of at least 100 milliseconds. Data are expressed as mean±SD.

[5] = tested on: NMRI mice; assay: Mouse 6-Hz (44 mA) psychomotor seizure model; assay type: in vivo; conditions: 30 min before stimulation; for mean seizure duration (±SD): Example 8; for mean seizure duration: Example 7
Experimental: Experiments were performed as described in Copmans et al. (2018) ACS chemical neuroscience. […] Mice were manually restrained and a drop of ocular anesthetic (0.5% lidocaine) was applied to the corneas before stimulation. Following electrical current stimulation, the mouse was released in a transparent cage for behavioral observation, which was video-recorded. […] In addition, facial and mouth jerking as well as head nodding were observed occasionally. Seizure durations were measured during the experiment by experienced researchers, familiar with the different seizure behaviors. In addition, seizure durations were determined by blinded video analysis to confirm or correct the initial observations. Data are expressed as mean±SD.

| SMILES | PTZ-induced seizure behavior in 5 min time intervals ([1]; at the tested concentration) | maximum tolerated concentration (MTC) [2] [µg/mL] | solubility in the solvent [3] | cumulative duration of PTZ-induced epileptiform events [4] | number of PTZ-induced epileptiform events [4] | antiseizure activity at lower concentrations [1] | PTZ-induced seizure behavior in 5 min time intervals ([1]; at MTC) | PTZ-induced seizure behavior in the 30 min recording period ([1]; at MTC) | mean seizure duration (±SD) ([5]; 2.5 mg/kg i.p.) [s] | mean seizure duration (±SD) ([5]; 5 mg/kg i.p.) [s] | mean seizure duration (±SD) ([5]; 10 mg/kg i.p.) [s] | other results |
| --- | --- | --- | --- | --- | --- | --- | --- | --- | --- | --- | --- | --- |
| CC1=Cc2ccc3c(c2CO1)OC(=C(C)C)C3=O [ustusorane B] | significant reduction |  |  |  |  |  |  |  |  |  |  |  |
| CC1=Cc2ccc3c(c2CO1)O[C@@H](C(C)C)C3=O [penicisochroman G] | significant reduction |  |  |  |  |  |  |  |  |  |  |  |
| Cc1cc2ccc3c(c2cn1)OC(O)(C(C)C)C3=O (stereo not shown) [TMC-120C] | significant reduction |  |  |  |  |  |  |  |  |  |  | PTZ-induced seizure behavior in the 30 min recording period ([1]; at the tested concentration): lowered PTZ-induced seizure behavior |
| Cc1cc2ccc3c(c2cn1)OC(C(C)C)C3=O (stereo not shown) [TMC-120A] |  | 20 | poor solubility | significantly lowered | significantly lowered | No significant antiseizure activity | significant reduction | not TMC-120A, significantly lowered | 13 | 20 | 17 | percentage of larvae with PTZ-induced epileptiform activity [4]: significantly lowered the percentage of larvae with PTZ-induced epileptiform activity by more than half; mean seizure duration (±SD) ([5]; 1.25 mg/kg i.p.): 15 s |
| CC(C)=C1Oc2c(ccc3cc(C)ncc23)C1=O [TMC-120B] |  | 20 | poor solubility | significantly lowered | significantly lowered | No significant antiseizure activity | significant reduction | significantly lowered | 27 | 23.5 | 10 | mean seizure duration ([5]; 2.5 mg/kg i.p.): 27 s; mean seizure duration ([5]; 5 mg/kg i.p.): 23.5 s; mean seizure duration ([5]; 10 mg/kg i.p.): 10 s; mean seizure duration ([5]; 20 mg/kg i.p.): 27.5 s; mean seizure duration (±SD) ([5]; 20 mg/kg i.p.): 27.5 s |
